Test results from patent US20150328116A1, “Oral Care Composition Containing Ionic Liquids” (COLGATE-PALMOLIVE COMPANY, priority 2012, published 2015).
Entries after “also recorded” stand apart in the source; their conditions may differ. Read-outs that look alike come from different tables or passages of the source.

Columns and labels:
[1] = system: 3-day old biofilm of artificial mouth consortium of bacteria (A. naeslundii, S. oralis, V. parvula, L. casei, F. nucleatum) and S. mutans; assay: In vitro removal of a 3-day old biofilm (optical density reduction); type: cell-based; details: for Percent Biofilm Removal (BMIM Cationic Series): […] BMIM-based ionic liquids in base prototype mouth rinse of Table 1
[2] = In-vitro removal of tooth stains / teeth whitening (L*a*b*); design: species or system human; details: 1M in prototype whitening mouthwash base (Table 7); teeth soaked one hour
Dental plaque samples = assay: Dissolution of plaque (visual pellet after centrifugation); details: water-insoluble plaque, ionic liquid added, vortex mixed at room temperature, centrifuged at 13,000 g
A. viscosus [3] = assay: Growth inhibition of A. viscosus (optical density over time); type: cell-based
Method: DMIM chloride was incorporated into a prototype mouth rinse as illustrated in Table 9. […] The growth inhibition was measured as a change in optical density over time.

A. viscosus [4] = assay: Short Interval Kill Test (SIKT); type: cell-based; details: 0.3, 0.6 and 1 wt % in prototype mouth rinse of Table 9
Text: SIKT determines the kill effect of a test article at a predetermined exposure time. […] The reaction was neutralized after 30 seconds by adding a neutralizing broth. The reaction mixture was further diluted and plated on MCA (Microbial Count Agar) plates for viable bacterial count.

A. viscosus [5] = assay: Minimum inhibitory concentration; type: cell-based; details: Actinomyces viscosus; 24 hours incubation, optical density at 610 nm
[6] = […] ionic liquid in base prototype mouth rinse of Table 1, 15 minutes, relative to water
[7] = direct comparison between EMIM and BMIM with different anions

| Compound | Percent Removal of a 3-day Oral Biofilm [1] | Percent Biofilm Removal (BMIM Cationic Series) [1] | Percent Removal of a 3-day Oral Biofilm [1, 6] | Percent Biofilm Removed (EMIM vs BMIM comparison) [1, 7] | other results |
| --- | --- | --- | --- | --- | --- |
| tris(2-hydroxyethyl)methylammonium sulfate [MTEOA MeSO4] | 52.8% |  |  |  | Percent Biofilm Removed (Other Ionic Liquids) [1]: 52.8% |
| 1-butyl-3-methylimidazolium octyl sulfate [BMIM Octyl SO4] |  | 58.6% | 58.6% |  |  |
| 1-butyl-3-methylimidazolium methyl sulfate [BMIM MeSO4] |  | 53.9% | 53.9% |  |  |
| 1,2,3-trimethylimidazolium methyl sulfate [TMIM MeSO4] | 51.8% |  |  |  | Percent Biofilm Removed (Other Ionic Liquids) [1]: 51.8% |
| COS(=O)(=O)[O-].Cc1cc[n+](C)n1C [MMMPz MeSO4, 1,2,3-trimethylpyrazolium (MMMPZ) methyl sulfate] |  |  | 57.8% |  | Percent Biofilm Removed (Other Ionic Liquids) ([1]; protocol of Example 2): 57.9% |
| CC(=O)[O-].CCn1cc[n+](C)c1 [EMIM OAc, 1-ethyl-3-methylimidazolium acetate] |  |  | 52.1% | 52.1% |  |
| 1-ethyl-3-methylimidazolium ethyl sulfate [EMIM Ethyl SO4] | 48.1% |  |  |  | ΔE [2]: 4.41; ΔL [2]: 3.40; ΔW [2]: −2.99 |
| C=CCn1cc[n+](C)c1.[Cl-] [AMIM Cl, 1-allyl-3-methylimidazolium chloride] | 44.8% |  |  |  | Percent Biofilm Removed (Other Ionic Liquids) [1]: 44.8%; biofilm removal, comparison in words [1]: effective in removing biofilm |
| 1-ethyl-3-methylimidazolium diethyl phosphate [EMIM diethyl PO4] |  |  | 52.7% |  |  |
| CCCCn1cc[n+](C)c1.[Br-] [BMIM Br, 1-butyl-3-methylimidazolium bromide] |  | 48.0% | 48.0% | 48.0% |  |
| CCn1cc[n+](C)c1.[Br-] [EMIM Br, 1-ethyl-3-methylimidazolium bromide] |  |  | 48.6% | 48.6% | plaque dissolution (size of the plaque pellet) (Dental plaque samples): size of the plaque pellet is reduced |
| CCCCCCCCCCn1cc[n+](C)c1.[Cl-] [DMIM Cl, 1-decyl-3-methylimidazolium chloride] |  |  | 57.3% |  | biofilm removal, comparison in words ([1]; comment on Tables 2 and 6, listed as DMIM chloride): significantly more effective in removing biofilm than EMIM chloride and BMIM chloride; also recorded: most effective in removing biofilm; Percent Biofilm Removed (Other Ionic Liquids) ([1]; protocol of Example 2): 57.3%; growth inhibition of A. viscosus (A. viscosus [3]; 0.312 wt % in prototype mouth rinse): Growth inhibition of A.viscosus is maintained; growth inhibition of A. viscosus (A. viscosus [3]; 1 wt % in prototype mouth rinse (Table 9), versus mouthwash containing cetylpyridinium chloride): greater growth inhibition of A. viscosus than a mouthwash containing cetylpyridinium chloride; time to kill A. viscosus (A. viscosus [4]): ≤ 30 s; MIC (A. viscosus [5]): 125 µg/mL |
| CCn1cc[n+](C)c1.Cc1ccc(S(=O)(=O)[O-])cc1 [EMIM Tosylate, 1-ethyl-3-methylimidazolium tosylate] |  |  | 59.5% |  |  |
| CCn1cc[n+](C)c1.[Cl-] [EMIM Cl, 1-ethyl-3-methylimidazolium chloride] | 44.3% |  |  |  | Percent Biofilm Removed (EMIM vs BMIM comparison) [1]: 44.3% |
| CCCCn1cc[n+](C)c1.[Cl-] [BMIM Cl, 1-butyl-3-methylimidazolium chloride] |  | 43.8% | 43.8% | 43.8% |  |
| CC(=O)[O-].CCCCn1cc[n+](C)c1 [BMIM OAc, 1-butyl-3-methylimidazolium acetate] |  | 55.8% | 55.9% | 55.8% |  |
